Laboratory results published in patent publication US11389395B2, “Encapsulation of microbubbles within the aqueous core of microcapsules” (DREXEL UNIVERSITY, priority 2009, dated 2022).

How the values were obtained:
[1] = Survival of microbubbles made at different processing temperatures; format: physicochemical; settings: formulations included 5 mol % PEG6000MS; for survival of microbubbles, 7° C.: processing temperature 7° C.; for survival of microbubbles, 37° C.: processing temperature 37° C.; for survival of microbubbles, 60° C.: processing temperature 60° C.
Text: Table 1 lists three phospholipid species, along with their gel transition temperatures, and the results of experiments attempting to make stable microbubbles with these species at different temperatures. All microbubble formulations included 5 mol % PEG6000MS.
In all cases in which the processing temperature was below the gel transition temperature, irrespective of the phospholipid identity, microbubble synthesis was feasible. Conversely, microbubble synthesis at temperatures greater than the gel transition temperature was not feasible, regardless of which phospholipid was used.

[2] = Microbubble growth on heating above the phospholipid chain melting temperature; format: physicochemical; settings: microbubbles made at 7° C., heated to 37° C.
Text: Use of a gel-phase lipid is required to prevent gas from escaping the microbubble. […] Indeed, these microbubbles expanded so as to fill the capillary in which they were contained and therefore became nonspherical, taking on the geometry of the capillary itself. […] Such growth may have resulted from simple expansion of individual microbubbles or by inward diffusion of gas.

Row | Structure (SMILES) | survival of microbubbles, 7° C. [1] | survival of microbubbles, 37° C. [1] | survival of microbubbles, 60° C. [1] | microbubble growth upon heating [2]
1 | CCCCCCCCCCCCCC(=O)OC[C@H](COP(=O)([O-])OCC[N+](C)(C)C)OC(=O)CCCCCCCCCCCCC [DMPC, dimyristoylphosphatidylcholine] | Yes | No | No | grew spontaneously
2 | CCCCCCCCCCCCCCCCCC(=O)OC[C@H](COP(=O)([O-])OCC[N+](C)(C)C)OC(=O)CCCCCCCCCCCCCCCCC [DSPC, 1,2-distearoyl-sn-glycero-3-phosphocholine] | Yes | Yes | No | No such growth was observed
